Series [1] can be described thus: Picosecond time-resolved infrared (TRIR) spectroscopy of excited states. The series is classed as physicochemical. The protocol:
The ultrafast time-resolved infrared (TRIR) experiments were performed on the ‘ULTRA’ laser system at the Science and Technology Facilities Council Rutherford Appleton Laboratory. The capabilities of the ULTRA instrument are described in detail elsewhere. Briefly, a chirped pulse amplified titanium:sapphire laser operating at 10 kHz repetition rate produced 40-80 fs duration pulses at a wavelength of 800 nm. The UV excitation pulse was generated from third harmonic generation of the 800 nm output of the amplifier with ˜50 fs duration at 266 nm, irradiating samples with a 1 μJ, 100 μm diameter beam. The mid-IR probe pulse was generated using ˜0.4 mJ of the 800 nm femtosecond output to pump an optical parametric amplifier, and difference frequency mixing of the signal and idler components. The mid-IR probe output pulses had ˜500 cm-1 bandwidth and ˜50 fs pulse duration. The UV pulses were polarized at a magic angle to the IR probe laser polarization. The timing between the pump and probe was performed using a PCcontrolled optical delay line. The sample in solution was placed between two 25 mm diameter CaF2 plates in a rasterscanned Harrick cell to limit irradiation of the sample by multiple pulses. The optical path of the sample between the two windows was controlled using a 100 μm PTFE spacer and the solution flowed using a peristaltic pump. The intensity of the transmitted mid-IR light was dispersed by a grating onto a pair of 128-element mercury-cadmium telluride array detectors (IR Associates), providing full (i.e. ˜500 cm-1) spectral coverage with every laser pulse. The overall instrument response time was ˜200 fs. A reference spectrum of the laser pulse (before the Harrick cell) was accumulated on a third, 64-element array detector and was used to remove the effects of laser fluctuations from the transient absorption data. Ground-state FTIR spectra were recorded using a Nicolet Avatar 360 spectrometer.
FIGS. 12 and 13 show the TRIR spectra of both isomers of CA4 following ultrafast electronic excitation using 266 nm, with the ground-state FTIR spectra shown beneath the time resolved data for comparison. To date there has been little characterization of combretastatins by infrared spectroscopy. However, the ground-state FTIR spectra have obvious similarities with stilbene and on this basis we assign the 1586/1581 and 1510/1509 cm-1 bands in E-CA4/Z-CA4 to the v8a ring stretches of the phenyl groups and v19a ring stretch with additional contributions from C—H in-plane bending. In the excited state spectra, there are negative absorption bands corresponding to bleaching of the ground-state absorptions and both the E- and Z-isomers are dominated by transient bands between 1350 and 1500 cm-1. At early times the transient bands show rapid shifting over about 10 cm-1 to higher wavenumbers associated with rapid ‘cooling’ of excess vibrational energy following electronic excitation as commonly observed in other molecular systems including DNA [26] and for the C═C stretching band of E-stilbene observed by time-resolved resonance Raman spectroscopy. It is also notable that for E-CA4 at pump-probe delays up to 20 ps, the intensities of the transient bands increase and this is most likely due to molecular rearrangements taking place lowering the overall symmetry of the molecule and increasing the cross-sections of these IR active modes. […]

For the next series, the system named is HeLa cells. In words: Fluorescence lifetime imaging (FLIM) of uptake and intracellular concentration in HeLa cells. Particulars: HeLa cells, 100 μM added. The method, then: Both HeLa and Chinese hamster ovary (CHO) cells were obtained from the European Collection of Cell Cultures. HeLa cells were cultured in MEM medium (Gibco) containing 10% foetal calf serum, penicillin (100 units/mL), streptomycin (100 μg/mL) and glutamine (2 mM). CHO cells were cultured in DMEM (Gibco) with the same additions as for the HeLa cells. For microscopy the adherent cell cultures were grown in 35 mm diameter glass-bottom culture dishes with optical quality glass (MatTek Corporation) and incubated at 37° C. in a humidified atmosphere containing 5% CO2. Human umbilical vein endothelial cells (HUVECs) were obtained from TCS Cellworks. HUVECs were sub-cultured in basal medium (TCS Cellworks) supplemented with antibiotic supplement/amphotericin-B, following the detailed guidelines provided by TCS Cellworks.
The fluorescence lifetime imaging system with multiphoton excitation employed lasers for multiphoton excitation consisting of a Ti:Sapphire laser, tuneable between 700 and 1000 nm and providing ca 180 fs pulses at 76 MHz, and an optical parametric oscillator (OPO) pumped by a second Ti:Sapphire laser source. Using the doubled idler output of the OPO, useful energies (>200 mW) could be obtained between 550 and 640 nm. Samples were excited on the stage of Nikon TE2000U inverted microscope using a water immersion ×60 objective of NA 1.2. Using the various microscope ports it was possible to record the fluorescence in a number of ways. The fluorescence signal at one port was relayed to a spectrometer (Acton 275) and CCD setup (Andor iDUS) so that emission spectra and intensities could be recorded. Alternatively the fluorescence signal could be routed via a second port to a time-correlated single photon counting (TCSPC) system (Becker and Hickl SPC-830) allowing fluorescence lifetime measurements and fluorescence lifetime imaging (FLIM), using Becker and Hickl software (SPCImage) for analysis. In FLIM mode the fluorescence was isolated by a suitable narrowband interference filter (400IU25 together with BG3 (Comar)). […] Two photon cross sections were determined using a reference fluorophore as a two photon standard as described by Mathai et al., employing published values of the two-photon cross section for 9-chloroanthracene.
Images of intracellular distribution of E-combretastatins in cell monolayers were obtained using fluorescence lifetime imaging, in which the rastered excitation laser beam dwells on each pixel for a few milliseconds and at each position records a nanosecond fluorescence lifetime decay curve using the time-correlated single photon counting method. […]
Quantification of fluorophore concentration from intensity measurements is often difficult.

Setting [2] is: dichloromethane, 266 nm excitation.
The mark [3] stands for this setting: room temperature, approximately 10 minutes.

In the case of `COc1ccc(/C=C/c2cc(OC)c(OC)c(OC)c2)cc1O` [E-CA4, (E)-1-(3′,4′,5′-Trimethoxyphenyl)-2-(4″-methoxy-3″-hydroxy-phenyl)ethene], in series [1] (setting [2]), the “Excited state decay, longer lifetime (relaxed excited state)” value is recorded as 503±56 ps and the “Excited state decay, shorter lifetime (biexponential fit)” value was found to be 6.5±0.46 ps. Moreover, the “Lifetime of the relaxed excited state measured by TRIR” value in series [1] (methanol) worked out at 230±14 ps. For the same compound, the “Intracellular concentration as times the concentration in the medium” value in the series with HeLa cells is given as 20-40 times. Moreover, in the series on HeLa cells (setting [3]), the “Intracellular concentration, smaller regions” value was > 4 mM and the “Intracellular concentration, substantial regions of the cell cytoplasm” value was > 2 mM.
